The target in one assay is T1, AMY3R (Homo sapiens, UniProt P30988).
T1 construct: expressed in transfected cells
T1 sequence (P30988 25-474): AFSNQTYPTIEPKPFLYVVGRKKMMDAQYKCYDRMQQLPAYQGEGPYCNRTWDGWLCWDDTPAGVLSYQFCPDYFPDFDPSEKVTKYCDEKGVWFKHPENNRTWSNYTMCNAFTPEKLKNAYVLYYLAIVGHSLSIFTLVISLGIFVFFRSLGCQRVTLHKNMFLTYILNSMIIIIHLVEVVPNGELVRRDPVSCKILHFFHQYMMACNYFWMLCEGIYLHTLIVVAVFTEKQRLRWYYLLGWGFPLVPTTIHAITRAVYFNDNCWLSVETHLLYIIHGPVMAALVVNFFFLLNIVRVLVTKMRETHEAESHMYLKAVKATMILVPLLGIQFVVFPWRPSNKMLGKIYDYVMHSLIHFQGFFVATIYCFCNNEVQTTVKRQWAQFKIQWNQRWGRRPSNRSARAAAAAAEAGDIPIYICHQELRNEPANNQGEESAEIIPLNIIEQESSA
T1 sequence (O60896 24-148 partner): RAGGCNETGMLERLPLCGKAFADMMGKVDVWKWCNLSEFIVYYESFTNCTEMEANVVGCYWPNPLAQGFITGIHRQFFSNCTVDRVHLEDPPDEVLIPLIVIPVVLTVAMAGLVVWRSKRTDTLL
The experiment in a line: HTRF cAMP assay, AMY3R. The assay is classed as cell-based. The note with it: HEK293/pGM-CREB-L-Luc/AMY3R pool, read-out: IC50 of receptor AMY3R. The text has this:
(§1) 2. The polypeptide derivatives prepared in Example 1 and Example 2 of the present disclosure can bind to the target AMYR and CTR receptors on the cell membrane, activate the receptors and release cAMP. Therefore, the activity of the analyte can be determined by using an HTRF (homogeneous time-resolved fluorescence) method and using a cAMP detection kit. The specific steps were as follows:
(§2) A stable transfected cell line of HEK293/pGM-CREB-L-Luc/AMY3R pool and HEK293/pGM-CREB-L-Luc/CTR pool was constructed. The polypeptide derivatives (i.e., AMY-001 to AMY-041) prepared in Examples 1 and 2 were subjected to 5-fold serial dilution from a maximum of 1000 nM to prepare a dilution series containing 8 to 11 concentration gradients. Cagrilintide and sCT were selected as positive controls for testing, and a dilution series was prepared according to the same method for testing. The test cell lines were selected and treated with cAMP-specific trypsin for digestion, and then suspended with 3 mL of serum-free DMEM medium by pipetting, and the cells were counted. 5 μL of IBMX (prepared with serum-free DMEM medium, 0.5 mM) and test cells (5 μL/7500 cells/well) were sequentially added to a 384-well plate, incubated under the conditions of 37° C., 5% CO2 for 30 minutes, then added with cAMP-d2 (5 μL, 1×) and Anti-cAMP-Cryptate (5 μL, 1×) and placed at room temperature for 1 hour. A HTRF value was determined by a chemiluminescence microplate reader, and the results were recorded. An activation curve was plotted using GraphPad Prism software to calculate an IC50 value of each polypeptide derivative. […] The IC50 values of some polypeptides were exemplarily shown in this example, see Table 3, FIG. 2 and FIG. 3 for details.
For orientation: In TR-FRET formats the signal depends on donor and acceptor labels being close together.

For a further assay, the target named is T2, CTR (Homo sapiens, UniProt P30988).
T2 construct: expressed in transfected cells
T2 sequence (P30988 25-474): T1 sequence (P30988 25-474)
The experiment in a line: HTRF cAMP assay, CTR. The note with it: HEK293/pGM-CREB-L-Luc/CTR pool, read-out: IC50 of receptor CTR. The assay is classed as cell-based.
Source text: as §1, §2

Molecules are shown by their SMILES. Starred links: 1 amine or outer side, 2 acyl side, 3 side chain; linkers in the order of their positions; H or OH if unused. Positions of bridges follow the written chain, without caps; N, C: chain ends. Non-standard residues stand in square brackets, D forms with d. Residues, ends and D or L forms follow the SMILES beside them. X1 = O=C(O)CCCCCCCCCCCCCCCCCCC(=O)N[C@@H](CCCCNC(=O)COCCOCCNC(=O)COCCOCCNC(=O)CCC(=O)N(CCNC(=O)C[*:1])CCNC(=O)C[*:2])C(=O)O; NMeR = CN[C@@H](CCCNC(=N)N)C(=O)O; Hyp = O=C(O)[C@@H]1C[C@@H](O)CN1; αMeF = C[C@](N)(Cc1ccccc1)C(=O)O; αMeL = CC(C)C[C@](C)(N)C(=O)O; Orn = NCCC[C@H](N)C(=O)O; Aib = CC(C)(N)C(=O)O

Consider `CC(=O)N[C@@H](C)C(=O)N[C@@H](CO)C(=O)N[C@@H](Cc1c[nH]cn1)C(=O)N[C@@H](CC(C)C)C(=O)N[C@@H](CO)C(=O)N[C@H](C(=O)N[C@@H](C)C(=O)N[C@H](C(=O)N[C@@H](CC(C)C)C(=O)NCC(=O)N[C@@H](CCCNC(=N)N)C(=O)N[C@@H](CC(C)C)C(=O)N[C@H]1CSCC(=O)NCCN(C(=O)CCC(=O)NCCOCCOCC(=O)NCCOCCOCC(=O)NCCCC[C@H](NC(=O)CCCCCCCCCCCCCCCCCCC(=O)O)C(=O)O)CCNC(=O)CSC[C@@H](C(=O)N[C@@H](CC(=O)O)C(=O)N[C@@H](Cc2ccc(O)cc2)C(=O)N2CCC[C@H]2C(=O)N[C@@H](CCCNC(=N)N)C(=O)N[C@H](C(=O)N[C@@H](CC(=O)O)C(=O)N[C@H](C(=O)NCC(=O)N[C@@H](C)C(=O)NCC(=O)N[C@@H](CO)C(=O)N2CCC[C@H]2C(N)=O)C(C)C)[C@@H](C)O)NC(=O)[C@H](CC(C)C)NC(=O)[C@H](CCCCN)NC(=O)[C@H](Cc2c[nH]cn2)NC(=O)[C@H](CC(C)C)NC(=O)[C@H](CCC(=O)O)NC(=O)[C@H](C)NC1=O)C(C)C)[C@@H](C)O` [AMY-008] (Ac-ASHLSTAVLGRLCAELHKLCDYPRTDVGAGSP-NH2; linker 13-20 via X1), for which the EC50 at AMY3R was found to be 0.0713 nM; at CTR, 0.0502 nM.

For the molecule `CC(=O)N[C@@H](C)C(=O)N[C@@H](CO)C(=O)N[C@@H](Cc1c[nH]cn1)C(=O)N[C@@H](CC(C)C)C(=O)N[C@@H](CO)C(=O)N[C@H](C(=O)N[C@@H](C)C(=O)N[C@H](C(=O)N[C@@H](CC(C)C)C(=O)NCC(=O)N[C@@H](CCCNC(=N)N)C(=O)N[C@H]1CSCC(=O)NCCN(C(=O)CCC(=O)NCCOCCOCC(=O)NCCOCCOCC(=O)NCCCC[C@H](NC(=O)CCCCCCCCCCCCCCCCCCC(=O)O)C(=O)O)CCNC(=O)CSC[C@@H](C(=O)NC(C)(C)C(=O)N[C@@H](CC(=O)O)C(=O)N[C@@H](Cc2ccc(O)cc2)C(=O)N2CCC[C@H]2C(=O)N[C@@H](CCCNC(=N)N)C(=O)N[C@H](C(=O)N[C@@H](CC(=O)O)C(=O)N[C@H](C(=O)NCC(=O)N[C@@H](C)C(=O)NCC(=O)N[C@@H](CO)C(=O)N2CCC[C@H]2C(N)=O)C(C)C)[C@@H](C)O)NC(=O)[C@H](CCCCN)NC(=O)[C@H](Cc2c[nH]cn2)NC(=O)[C@H](CC(C)C)NC(=O)[C@H](CCC(=O)O)NC(=O)[C@H](C)NC(=O)[C@H](CO)NC1=O)C(C)C)[C@@H](C)O` [AMY-007, Ac-ASHLSTAVLGRCSAELHKC-Aib-DYPRTDVGAGSP-NH2] (Ac-ASHLSTAVLGRCSAELHKC[Aib]DYPRTDVGAGSP-NH2; linker 12-19 via X1), the results for the EC50 on AMY3R and at CTR were 0.349 nM and 0.262 nM, respectively.

As to `CC(=O)N[C@@H](C)C(=O)N[C@@H](CO)C(=O)N[C@@H](Cc1c[nH]cn1)C(=O)N[C@@H](CC(C)C)C(=O)N[C@@H](CO)C(=O)N[C@H](C(=O)N[C@@H](C)C(=O)N[C@H]1CCCCNC(=O)CN(C(=O)CCCNC(=O)COCCOCCNC(=O)COCCOCCNC(=O)CC[C@H](NC(=O)CCCCCCCCCCCCCCCCCCC(=O)O)C(=O)O)CC(=O)NCCCC[C@@H](C(=O)N[C@@H](CC(C)C)C(=O)N[C@@H](Cc2c[nH]cn2)C(=O)N[C@@](C)(CCCCN)C(=O)N[C@@H](CC(C)C)C(=O)NC(C)(C)C(=O)N[C@@H](CC(=O)O)C(=O)N[C@@H](Cc2ccc(O)cc2)C(=O)N2CCC[C@H]2C(=O)N[C@@H](CCC(N)=O)C(=O)N[C@H](C(=O)N[C@@H](CC(=O)O)C(=O)N[C@H](C(=O)NCC(=O)N[C@@H](C)C(=O)NCC(=O)N[C@@H](CO)C(=O)N2C[C@H](O)C[C@H]2C(N)=O)C(C)C)[C@@H](C)O)NC(=O)[C@H](C)NC(=O)[C@H](CO)NC(=O)[C@H](CC(C)C)NC(=O)[C@H](CCCNC(=N)N)NC(=O)CNC(=O)[C@H](CC(C)C)NC1=O)[C@@H](C)O` [AMY-021, Ac-ASHLSTAKLGRLSAKLH-(αMeK)-L-Aib-DYPQTDVGAGS-Hyp-NH2], the EC50 stood at 0.0044 nM on AMY3R and 0.0012 nM at CTR.

Consider `CC(=O)N[C@@H](C)C(=O)N[C@@H](CO)C(=O)N[C@@H](Cc1c[nH]cn1)C(=O)N[C@@](C)(CC(C)C)C(=O)N[C@@H](CO)C(=O)N[C@H](C(=O)N[C@@H](C)C(=O)N[C@H]1CSCC(=O)NCCN(C(=O)CCC(=O)NCCOCCOCC(=O)NCCOCCOCC(=O)NCCCC[C@H](NC(=O)CCCCCCCCCCCCCCCCCCC(=O)O)C(=O)O)CCNC(=O)CSC[C@@H](C(=O)N[C@@H](CC(C)C)C(=O)N[C@@H](Cc2c[nH]cn2)C(=O)N[C@@H](CCCCN)C(=O)N[C@@H](CC(C)C)C(=O)NC(C)(C)C(=O)N[C@@H](CC(=O)O)C(=O)N[C@@](C)(Cc2ccccc2)C(=O)N2CCC[C@H]2C(=O)N(C)[C@@H](CCCNC(=N)N)C(=O)N[C@H](C(=O)N[C@@H](CC(=O)O)C(=O)N[C@H](C(=O)NCC(=O)N[C@@H](C)C(=O)NCC(=O)N[C@@H](CO)C(=O)N2CCC[C@H]2C(N)=O)C(C)C)[C@@H](C)O)NC(=O)[C@H](C)NC(=O)[C@H](CO)NC(=O)[C@H](CC(C)C)NC(=O)[C@H](CCCNC(=N)N)NC(=O)CNC(=O)[C@H](CC(C)C)NC1=O)[C@@H](C)O` [AMY-010, Ac-ASH-(aMeK)-STACLGRLSACLHKL-Aib-D-(αMeF)-P-(N-Me-R)-TDVGAGSP-NH2] (Ac-ASH[αMeL]STACLGRLSACLHKL[Aib]D[αMeF]P[NMeR]TDVGAGSP-NH2; linker 8-15 via X1), for which the EC50 at AMY3R was determined as 0.0523 nM; at CTR, 0.0415 nM.

With `CC(=O)N[C@@H](C)C(=O)N[C@@H](CO)C(=O)N[C@@H](Cc1c[nH]cn1)C(=O)N[C@@H](CC(C)C)C(=O)N[C@@H](CO)C(=O)N[C@H](C(=O)N[C@@H](C)C(=O)N[C@H]1CSCC(=O)NCCN(C(=O)CCC(=O)NCCOCCOCC(=O)NCCOCCOCC(=O)NCCCC[C@H](NC(=O)CCCCCCCCCCCCCCCCCCC(=O)O)C(=O)O)CCNC(=O)CSC[C@@H](C(=O)N[C@@H](CC(C)C)C(=O)N[C@@H](Cc2c[nH]cn2)C(=O)N[C@@H](CCCN)C(=O)N[C@@H](CC(C)C)C(=O)NC(C)(C)C(=O)N[C@@H](CC(=O)O)C(=O)N[C@@](C)(Cc2ccccc2)C(=O)N2CCC[C@H]2C(=O)N[C@@H](CCCNC(=N)N)C(=O)N[C@H](C(=O)N[C@@H](CC(=O)O)C(=O)N[C@H](C(=O)NCC(=O)N[C@@H](C)C(=O)NCC(=O)N[C@@H](CO)C(=O)N2C[C@H](O)C[C@H]2C(N)=O)C(C)C)[C@@H](C)O)NC(=O)[C@H](C)NC(=O)[C@H](CO)NC(=O)[C@H](CC(C)C)NC(=O)[C@H](CCCNC(=N)N)NC(=O)CNC(=O)[C@H](CC(C)C)NC1=O)[C@@H](C)O` [AMY-009, Ac-ASHLSTACLGRLSACLH-Orn-L-Aib-D-(αMeF)-PRTDVGAGS-Hyp-NH2] (Ac-ASHLSTACLGRLSACLH[Orn]L[Aib]D[αMeF]PRTDVGAGS[Hyp]-NH2; linker 8-15 via X1), the EC50 on AMY3R came to 0.0414 nM; at CTR it was 0.0894 nM.

The values are drawn from patent publication US20260337245A1, “POLYPEPTIDE OR ANALOG THEREOF AND USE THEREOF” (Shenzhen Bay Laboratory, priority 2024, published 2026).
